Columns and labels:
β6 integrin promoter = assay: Chromatin immunoprecipitation of pCREB on β6 integrin promoter in NP cells; assay type: cell-based, mouse; conditions: ChIP, most distal CREB site (Primer 1)
Procedure: The ChIP assays were carried out using the Thermo Fisher ChIP Kit (catalog number: 26156). The crude homogenate from the NP cells was crosslinked with 1% formaldehyde at room temperature for 10 min. The reaction was stopped by adding glycine (0.25 M). After centrifugation, the pellet was collected and lysed in SDS lysis buffer containing protease inhibitor cocktail. The lysis was sonicated until the DNA was broken into fragments with a mean length of 200-1,000 bp. The samples were first pre-cleaned with protein G agarose and then subjected to immunoprecipitation overnight with […] of rabbit antibodies against pCREB (CST, 1:50) With […] of normal rabbit serum overnight at 4° C. The 10-20% of the sample for immunoprecipitation was used as an input (a positive control).

NP cells = assay: Western blot of pCREB in cultured NP cells; assay type: cell-based, mouse
Procedure: Green fluorescent protein (GFP) labeled NP cells of notochordal origin were isolated from 15-day old Noto^Cre/+::ROSA26-lacZ^flox/flox male mice as previously described. The NP cells from 15-day old PTH1R^+/+ and PTH1R^−/−, IFT88^+/+ and IFT88^−/− male mice. Briefly, the cells were isolated from the NP region of IVDs in the spinal column from mid thoracic to lower lumbar region and digested initially with TrypLE Express (Gibco) for 30 minutes on shaker, followed by 0.25 mg/ml Collagense-P (Roche) for another […] at 37° C. The digested cells were washed twice with PBS, and cultured in α-MEM (Gibco) supplemented with 10% fetal calf serum (Atlanta Biologicals), and 1% penicillin—streptomycin (Mediatech) to 80-90% confluence at 37° C., 5% CO2 and 5% O2.
Western blot analyses were conducted on the protein lysates from in vitro cultured NP cells or NP tissues from mice at specific time points after PTH (1-34) treatment and human at different ages with lumbar disc degeneration. The protein extract was centrifuged, the concentration of supernatant evaluated by DC protein assay (Bio-Rad Laboratories), and then separated by SDS-PAGE and blotted on a polyvinylidene fluoride membrane (Bio-Rad Laboratories). Following incubation in specific antibodies, we detected proteins using an enhanced chemiluminescence kit (Amersham Biosciences). […]

## CC[C@H](C)[C@H](NC(=O)[C@H](CCC(=O)O)NC(=O)[C@H](CO)NC(=O)[C@@H](NC(=O)[C@@H](N)CO)C(C)C)C(=O)N[C@@H](CCC(N)=O)C(=O)N[C@@H](CC(C)C)C(=O)N[C@@H](CCSC)C(=O)N[C@@H](Cc1cnc[nH]1)C(=O)N[C@@H](CC(N)=O)C(=O)N[C@@H](CC(C)C)C(=O)NCC(=O)N[C@@H](CCCCN)C(=O)N[C@@H](Cc1cnc[nH]1)C(=O)N[C@@H](CC(C)C)C(=O)N[C@@H](CC(N)=O)C(=O)N[C@@H](CO)C(=O)N[C@@H](CCSC)C(=O)N[C@@H](CCC(=O)O)C(=O)N[C@@H](CCCN=C(N)N)C(=O)N[C@H](C(=O)N[C@@H](CCC(=O)O)C(=O)N[C@@H](Cc1c[nH]c2ccccc12)C(=O)N[C@@H](CC(C)C)C(=O)N[C@@H](CCCN=C(N)N)C(=O)N[C@@H](CCCCN)C(=O)N[C@@H](CCCCN)C(=O)N[C@@H](CC(C)C)C(=O)N[C@@H](CCC(N)=O)C(=O)N[C@@H](CC(=O)O)C(=O)N[C@H](C(=O)N[C@@H](Cc1cnc[nH]1)C(=O)N[C@@H](CC(N)=O)C(=O)N[C@@H](Cc1ccccc1)C(=O)O)C(C)C)C(C)C [PTH (1-34), teriparatide]
β6 integrin promoter
  binding of pCREB to the β6 integrin promoter: inducing direct binding of pCREB
NP cells; at 30 min
  phosphorylation of CREB (Western blot): induced phosphorylation of CREB
NP cells; knockdown of pallidin with siRNA
  PTH-enhanced phosphorylation of CREB: blocked

— US20210205638A1, “PARATHYROID HORMONE AND REGENERATION OF DEGENERATIVE DISCS DISEASE” (THE JOHNS HOPKINS UNIVERSITY, priority 2017, published 2021)
